Results taken from the supplement of paper PMC10307832.

Columns and labels:
Test in all cases: relative viability (nuclei count vs DMSO), 5 days (fraction); higher = more cells survive
[1] = compound: CCOC(=O)CCNc1cc(N2CCc3ccccc3CC2)nc(-c2ccccn2)n1 [GSK-J4] + C[C@@H](Oc1cc(-c2cnn(C3CCNCC3)c2)cnc1N)c1c(Cl)ccc(F)c1Cl [Crizotinib] (partner 1 µM)
Summary of the method: (§1)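 Values are medians from duplicate plates. Each reflects relative viability, defined as the nuclei count of treated wells over that of vehicle wells. Lung cancer cell lines in 1536-well plates were pin-tool dosed one day after seeding with one drug alone or with a fixed anchor-drug dose plus five library-drug doses (not always all listed) in √10 steps, then fixed, stained and imaged at 4× after 5 days.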

[2] = compound: CCOC(=O)CCNc1cc(N2CCc3ccccc3CC2)nc(-c2ccccn2)n1 [GSK-J4] + CCNC(=O)c1noc(-c2cc(C(C)C)c(O)cc2O)c1-c1ccc(CN2CCOCC2)cc1 [Luminespib] (partner 0.01 µM)
Summary of the method: as §1

[3] = compound: CCOC(=O)CCNc1cc(N2CCc3ccccc3CC2)nc(-c2ccccn2)n1 [GSK-J4] + Nc1nc2[nH]cc(CCc3ccc(C(=O)N[C@@H](CCC(=O)O)C(=O)O)cc3)c2c(=O)[nH]1 [Pemetrexed] (partner 0.2 µM)
Summary of the method: as §1

[4] = compound: CN1CCC(CC1)OC2=CC(=C(C=C2)NC3=NC=C4C(=N3)N(C(=O)N4C)C5CCCC5)OC [AZ3146] + COc1cccc2cc(-c3nc([C@H]4CC[C@H](C(=O)O)CC4)n4ncnc(N)c34)[nH]c12 [OSI-027] (partner 0.5 µM)
Summary of the method: as §1

| Cell Line | relative viability ([1]; first compound 0.5 µM) | relative viability ([1]; first compound 1.581 µM) | relative viability ([1]; first compound 5 µM) | relative viability ([1]; first compound 15.81 µM) | relative viability ([1]; first compound 50 µM) | relative viability ([2]; first compound 0.5 µM) | relative viability ([2]; first compound 1.581 µM) | relative viability ([2]; first compound 5 µM) | relative viability ([2]; first compound 15.81 µM) | relative viability ([2]; first compound 50 µM) | relative viability ([3]; first compound 0.5 µM) | relative viability ([3]; first compound 1.581 µM) | relative viability ([3]; first compound 5 µM) | relative viability ([3]; first compound 15.81 µM) | relative viability ([3]; first compound 50 µM) | relative viability ([4]; first compound 0.08 µM) | relative viability ([4]; first compound 0.253 µM) | relative viability ([4]; first compound 0.8 µM) | relative viability ([4]; first compound 2.53 µM) | relative viability ([4]; first compound 8 µM) |
| --- | --- | --- | --- | --- | --- | --- | --- | --- | --- | --- | --- | --- | --- | --- | --- | --- | --- | --- | --- | --- |
| NCI-H1734 | 0.645 | 0.637 | 0.576 | 0.57 | 0.486 | 0.209 | 0.167 | 0.181 | 0.186 | 0.155 | 0.424 | 0.412 | 0.391 | 0.407 | 0.364 | 0.592 | 0.554 | 0.641 | 0.591 | 0.553 |
| NCI-H1755 | 0.841 | 0.821 | 0.891 | 0.733 | 0.772 | 0.355 | 0.387 | 0.504 | 0.326 | 0.383 | 0.4 | 0.349 | 0.398 | 0.388 | 0.365 | 0.589 | 0.737 | 0.575 | 0.72 | 0.802 |
| NCI-H1792 | 0.981 | 0.675 | 0.911 | 0.955 | 0.959 | 0.46 |  | 0.533 | 0.358 | 0.454 | 0.799 | 0.595 | 0.501 | 0.632 | 0.777 | 0.638 | 0.735 |  | 0.699 | 0.714 |
| NCI-H1915 | 0.852 | 0.826 | 0.87 | 0.915 | 0.804 | 0.824 | 0.791 |  | 0.657 | 0.613 | 0.41 | 0.518 |  | 0.473 | 0.446 | 0.519 | 0.637 | 0.663 | 0.625 | 0.628 |
| NCI-H1944 | 1.14 | 1.06 | 1.11 | 1.1 | 1.07 | 0.762 | 0.711 | 0.851 | 0.649 | 0.799 | 0.553 | 0.565 |  | 0.48 | 0.586 | 0.382 | 0.359 | 0.446 | 0.464 | 0.374 |
| NCI-H1975 | 0.928 | 1.02 |  | 0.998 | 1 | 0.261 | 0.202 |  | 0.178 | 0.284 | 0.249 | 0.285 | 0.212 | 0.331 | 0.276 | 0.677 | 0.747 | 0.785 | 0.71 | 0.416 |
| NCI-H1993 | 0.826 | 0.789 | 0.938 | 0.841 | 0.796 | 0.885 | 0.803 | 0.779 | 0.525 | 0.494 | 0.699 | 0.585 | 0.575 | 0.562 | 0.476 | 0.531 | 0.579 | 0.541 | 0.531 | 0.543 |
| NCI-H2009 | 0.955 | 1 | 0.77 | 1.05 | 0.789 | 1.05 | 0.918 |  | 0.938 | 0.407 | 0.964 | 0.846 | 0.769 | 0.997 | 0.576 | 0.631 | 0.621 | 0.651 | 0.703 | 0.436 |
| NCI-H2023 | 0.542 | 0.621 | 0.678 | 0.597 | 0.654 | 0.73 | 0.685 | 0.862 | 0.76 | 0.472 | 0.177 | 0.245 | 0.238 | 0.218 | 0.173 | 0.42 | 0.364 | 0.298 | 0.362 | 0.21 |
| NCI-H2085 | 0.839 | 0.609 | 0.617 | 0.794 | 0.906 | 0.477 | 0.394 | 0.419 | 0.41 | 0.309 | 0.899 | 0.789 | 0.699 | 0.883 | 0.961 | 0.614 | 0.648 | 0.649 | 0.852 | 0.475 |
| NCI-H2087 | 0.685 | 0.767 |  | 0.859 | 0.516 | 0.172 |  | 0.166 | 0.162 | 0.174 | 0.622 | 0.667 | 0.635 | 0.621 | 0.742 | 0.54 | 0.656 | 0.469 | 0.674 | 0.525 |
| NCI-H2126 | 0.99 | 0.823 | 1 | 0.979 | 0.917 | 0.796 | 0.867 | 0.876 | 0.82 | 0.651 | 0.716 | 0.593 | 0.733 | 0.621 | 0.555 | 0.6 | 0.706 | 0.537 | 0.784 | 0.649 |
